These results are taken from patent US8318808B2, “Zn2+chelating motif-tethered short-chain fatty acids as a novel class of histone deacetylase inhibitors” (The Ohio State University Research Foundation, priority 2007, dated 2012).

Series [1] relates to phospho-Akt in PC-3 cells (PTEN-/-). Description: Activation status of Akt in PC-3 cells. Type of series: cell-based. Particulars: comparable concentrations. The source says:
The effect of these agents on the activation status of Akt in PC-3 cells (PTEN^−/−) was also examined. Akt is constitutively activated in PC-3 cells due to lack of functional PTEN, which contributes to the androgen independency and chemotherapeutic resistance of these cells.

Series [2] in a line: Toxicity, body weights and pathological evaluation of treated tumor-bearing mice. Particulars: for body weights: measured weekly, compound 42 or 44 oral 50 and 100 mg/kg/day, SAHA i.p. 50 mg/kg/day. Type of series: in vivo, NCr athymic nude mice (nu/nu). The procedure:
At the conclusion of the study, complete pathological evaluation of one mouse from each treatment group was performed by board-certified veterinary pathologists at The Ohio State University College of Veterinary Medicine, which included clinical pathology (hematology, serum chemistries) and complete necropsy (gross and microscopic examination of at least 27 different tissues and organs). […] Hematological parameters were within normal limits except for a neutrophilia, which was observed only in mice from both vehicle-treated control groups and the SAHA- and compound 44 (50 mg/kg)-treated groups. Serum chemistry values were consistent with mild dehydration in the vehicle-treated mice, but were within normal limits for all other mice.

The subject of series [3] is acetylation of histone H-3 in PC-3 xenograft tumors. Description: Western blot of acetylated histone H3 in PC-3 xenograft tumor homogenates. Format: in vivo, mice. Particulars: 28 days.
A further series relates to PC-3 xenograft tumors. Nature of the series: Growth of established subcutaneous PC-3 xenograft tumors. Particulars: for reduction in the growth of the tumors vs vehicle-treated control: 50 mg/kg/day; for suppression of growth of established PC-3 tumors: oral route, 50 and 100 mg/kg/day (either dose).
In series [4] the test system is acetylated histones H3 and H4 and p21WAF/CIP1 in DU-145 cells. Description: Western blot of histone acetylation and p21WAF/CIP1 expression in DU-145 cells. Type of series: cell-based. The following applies: for levels of acetylated histones H3 and H4, and p21WAF/CIP1: 10% FBS, HTPB 0.5-[…], TSA 0.25-0.5 μM, phenylbutyrate 1-5 mM. The procedure:
Western blot analysis. DU-145 cells (1×10^6) treated with HTPB at the indicated concentrations in 10% FBS-supplemented RPMI 1640 medium for 24 h were collected, and sonicated. Protein concentrations of the lysates were determined by using a Bradford protein assay kit (Bio-Rad, Hercules, Calif.); equivalent amounts of proteins from each lysate were resolved in 10% SDS-polyacrylamide gel, and then transferred onto Immobilon-nitrocellulose membranes (Millipore, Bellerica, Mass.) in a semi-dry transfer cell. The transblotted membrane was washed twice with Tris-buffered saline (TBS) containing 0.1% Tween 20 (TBST). After blocking with TBST containing 5% nonfat milk for 40 min, the membrane was incubated with the primary antibody (1:1000 dilution) in TBST-1% nonfat milk at 4° C. overnight. After treatment with the primary antibody, the membrane was washed three times with TBST for a total of 15 min, followed by goat anti-rabbit or anti-mouse IgG-horseradish peroxidase conjugates (diluted 1:3000) for 1 h at room temperature and wash three times with TBST for a total of 1 h. The immunoblots were visualized by enhanced chemiluminescence.
DU-145 cells were exposed to HTPB at 0.5, 1, 2.5 μM, TSA at 0.25 and 0.5 μM, or phenylbutyrate at 1, 2.5, and 5 mM in 10% FBS-supplemented RPMI 1640 medium for 24 h. […] The effect of 1 μM HTPB on these biomarkers approximated that of 0.25 μM TSA, or 2.5 mM phenylbutyrate.
In general terms: Immunoblotting shows a protein as a band on a membrane.

The target in series [5] is histone deacetylase (HDAC) activity of DU-145 nuclear extract. Nature of the series: In vitro HDAC assay (histone deacetylase assay kit, [3H]-acetyl histone H4 peptide). Type of series: biochemical. As to the method: In vitro HDAC assay. HDAC activity was analyzed by using a histone deacetylase assay kit (Upstate Biotechnology, Lake Placid, N.Y.) by following the manufacturer's instruction with slight modifications. […] The release of [^3 H]-acetate into the supernatant was measured to calculate the HDAC activity. Sodium butyrate (0.25-1 mM) was used as a positive control.

In series [6] the test system is DU-145 cells. Description: Cell viability assay (MTT). Format: cell-based. The following applies: Homo sapiens, 10% FBS-supplemented RPMI-1640, read-out: IC50 in growth inhibition. As to the method: Cell viability assay. The effect of HTPB on cell viability was assessed by the MTT {[3-(4,5-dimethylthiazol-2-yl)-2,5-diphenyl-2 H-tetrazolium bromide]} assay in 96-well, flat-bottomed plates, in which 4,000 DU-145 cells/well were seeded. Cells were exposed to HTPB at the indicated concentrations in 10% FBS-supplemented RPMI-1640 medium at 37° C. in 5% CO2 for the indicated time. The medium was removed and replaced by 150 μl of 0.5 mg/ml of MTT in RPMI-1640 medium, and cells were incubated in the CO2 incubator at 37° C. for 2 hours. Supernatants were removed from the wells, and the reduced MTT dye was solubilized with 200 μl/well DMSO. Absorbance was determined on a plate reader at 570 nm. Each treatment was repeated in six wells.

Series [7] has as its system DU-145 cells. Nature of the series: Apoptosis detection by Cell Death ELISA (nucleosomal DNA). Format: cell-based. The procedure:
Apoptosis Detection by An Enzyme-Linked Immunosorbent Assay (ELISA). Induction of apoptosis was assessed by using a Cell Death ELISA (Roche Diagnostics, Mannheim, Germany) by following the manufacturer's instruction. This test is based on the quantitative determination of cytoplasmic histone-associated DNA fragments in the form of mononucleosomes and oligonucleosomes after induced apoptotic death. In brief, 1×10^6 DU-145 cells were cultured in a T-75 flask 24 h prior to the experiment. Cells were treated with HTPB at the indicated concentrations in 10% FBS-supplemented RPMI 1640 medium. Both floating and adherent cells were collected, cell lysates equivalent to 2×10^3 cells were used in the ELISA.
A general note: An ELISA detects its analyte on a solid surface through an enzyme-linked reagent.

Series [8] relates to FAK (focal adhesion kinase). Nature of the series: Phosphorylation level of FAK in PC-3 cells. Type of series: cell-based. The source says:
(§1) This dephosphorylating effect, however, is kinase-specific.

A further series has as its system ERKs. Nature of the series: Phosphorylation level of ERKs in PC-3 cells. Type of series: cell-based.
Excerpt: as §1

For a further series, the system named is p38. Nature of the series: Phosphorylation level of p38 in PC-3 cells. Type of series: cell-based.
Excerpt: as §1

In the next series the test system is JNK. Description: Phosphorylation level of JNK in PC-3 cells. Type of series: cell-based.
Excerpt: as §1

A further series has as its system 60 cell lines. Description: Sixty-cell line screening by the NCI Developmental Therapeutics Program. Type of series: cell-based. The following applies: average against all 60 cell lines; read-out: average GI50 (50% inhibition of cell growth).
For series [9], the system named is chronic lymphocytic leukemia (TLC-1 transgenic mouse model). Description: Pilot in vivo study in TLC-1 transgenic mouse model. The following applies: 100 mg/kg oral gavage, 5 days on/two days off for 4 weeks.
The subject of a further series is PC-3 cells. Nature of the series: cells. The following applies: Homo sapiens, PC-3, 72 h, read-out: IC50, PC-3 cell proliferation.
Where [10] appears, read: i.p., 50 mg/kg/day, one mouse per group.
The mark [11] stands for this setting: DU-145 nuclear extract, read-out: HDAC inhibition IC50.
The mark [12] stands for this setting: DU-145 nuclear extract, running text, read-out: HDAC inhibition IC50.
Where [13] appears, read: Table 1, representative phenylbutyrate-based HDAC inhibitors, read-out: IC50.
[14] abbreviates: parent short-chain fatty acid, read-out: HDAC inhibition IC50.

Read-outs that look alike come from different tables or passages of the source. Bounds are passed on as bounds.

Consider `O=C(CCCCCCC(=O)Nc1ccccc1)NO` [SAHA, suberoylanilide hydroxamic acid, reference compound], for which the “effect on phospho-Akt” value in series [1] is listed as “no appreciable effect”. In addition, in series [2] (setting [10]), the “gross pathologic abnormalities at necropsy” value is “small adhesions in the peritoneum” and the hematological parameters entry was “neutrophilia”. Besides, in series [2], the body weights result was “stable throughout the study”. In series [3] (i.p., 50 mg/kg/day), the “acetylation level of histone H3 in PC-3 tumors” value is listed as “significant increase”. Besides, the “reduction in the growth of the tumors vs vehicle-treated control” value with PC-3 xenograft tumors (i.p.) is reported as 69.9%.
With `CC(/C=C/C(=O)NO)=C\[C@@H](C)C(=O)c1ccc(N(C)C)cc1` [TSA, trichostatin A], in series [4] (24 h), the “concentration with approximately equal effect on acetylated histones H3/H4 and p21WAF/CIP1” value stood at 0.25 µM; the “levels of acetylated histones H3 and H4, and p21WAF/CIP1” value (from here on “levels … and p21WAF/CIP1”) is given as “elevated levels”.
With `CCCC(CCC)C(=O)Nc1ccc(CCC(=O)NO)cc1` [compound 8], the IC50 in series [5] (setting [11]) was found to be 5000 nM.
Turning to `O=C(CCCc1ccccc1)Nc1ccc(C(=O)NO)cc1` [compound 19, N-Hydroxy-4-(4-phenylbutyrylamino)-benzamide], the IC50 in [5] (setting [11]) was 44 nM; in series [5] (setting [12]) it was 44 nM; in series [5] (setting [13]) it was 44 nM; in the series with DU-145 cells [6], 500 to 1000 nM. In the series on DU-145 cells [7] (24 h), the “drug concentration above which extensive apoptosis occurred” value is “exceeded 1 μM”. In addition, in the series with DU-145 cells [7] (24 h exposure), the “apoptosis (DNA fragmentation)” value is recorded as “sensitized DU-145 cells to apoptosis in a dose-dependent manner”. The “concentration causing hyperacetylation of histones H-3 and H-4 (as low as)” value in series [4] was ≤ 0.5 µM. Moreover, the “concentration at which p21WAF/CIP1 level increased substantially (as low as)” value in [4] (24 h) was ≤ 0.5 µM. In addition, in series [4] (24 h), the “concentration with approximately equal effect on acetylated histones H3/H4 and p21WAF/CIP1” value came out at 1 µM. Besides, in series [4] (24 h), the “levels … and p21WAF/CIP1” value was “elevated levels”.
Consider `CC(C)C(C(=O)Nc1ccc(C(=O)NO)cc1)c1ccccc1` (stereo not drawn) [compound 42, N-Hydroxy-4-(3-methyl-2-phenyl-butyrylamino)-benzamide], for which, in series [8], the “phosphorylation level of FAK” value is given as “diminished in a dose-dependent manner”. For the same compound, in the series with ERKs, the “phosphorylation level of ERKs” value is listed as “diminished in a dose-dependent manner”. In addition, the “phosphorylation level of p38” value with p38 is on record as “remained unaffected”. Moreover, the “phosphorylation level of JNK” value in the series with JNK is “remained unaffected”. Further, the “toxicity in tumor-bearing mice” value in series [2] (28-day course at 50 or 100 mg/kg/day) is given as “no demonstrable toxicity”. Moreover, in series [2], the body weights result is “stable throughout the study”. The “overt toxicity (body weights and pathological examination)” value in [2] (oral, 100 mg/kg/day) is listed as “absence of overt toxicity”. The “acetylation level of histone H3 in PC-3 tumors” value in series [3] (oral, 50 or 100 mg/kg/day) was “significant increase”. Also, in the series on 60 cell lines, the concentration for 50% growth inhibition (GI50) is 200 nM. In [9], the survival entry is reported as “trend toward improved survival” and the toxicity result was “no notable toxicity”. In addition, the IC50 in the series on PC-3 cells was 600 nM. In addition, the oral bioavailability entry with PC-3 xenograft tumors (mouse, in vivo, po) is listed as “orally bioavailable”. The “suppression of growth of established PC-3 tumors” value in the series with PC-3 xenograft tumors is on record as “effective”. In the series with PC-3 xenograft tumors (oral), the “reduction in the growth of the tumors vs vehicle-treated control” value stood at 70.4%. In the series on PC-3 xenograft tumors (oral, 100 mg/kg/day), the “reduction in PC-3 tumor growth” value is listed as 91.7%.
For the compound `CC(C)(CCc1ccccc1)C(=O)Nc1ccc(C(=O)NO)cc1` [compound 44, 4-(2,2-Dimethyl-4-phenyl-butyrylamino)-N-hydroxy-benzamide], the IC50 was found to be 32 nM in [5] (setting [12]) and 800 nM with PC-3 cells. The body weights entry in series [2] is recorded as “stable throughout the study”. Moreover, the hematological parameters result in series [2] (oral, 50 mg/kg, one mouse per group) is on record as “neutrophilia”. Further, the “suppression of growth of established PC-3 tumors” value with PC-3 xenograft tumors was “effective”.
As for `Nc1ccccc1NC(=O)c1ccc(NC(=O)CCCc2ccccc2)cc1` [compound 55, N-(2-Amino-phenyl)-4-(4-phenyl-butyrylamino)-benzamide], the IC50 in series [5] (setting [11]) was 400 nM. For the same compound, the “drop in HDAC inhibitory potency when hydroxamate of compound 19 is replaced by phenylenediamine” value in series [5] (relative to compound 19) turned out to be 10 fold.
For `CC[C@@H](C(=O)Nc1ccc(C(=O)NO)cc1)c1ccccc1` [compound 61, N-hydroxy-4-[2-(R)-phenylbutyrylamino]-benzamide], the IC50 in series [5] (setting [13]) was 38 nM.
With `CCCC(CCC)C(=O)O` [valproic acid, reference compound], the IC50 in series [5] (setting [14]) worked out at 400000 nM.
Take phenylbutyrate: the IC50 in [5] (setting [14]) was 400000 nM. Moreover, the “concentration required for the same effects on histone acetylation and p21WAF/CIP1 expression” value in [4] is recorded as “at least 2.5 mM”. In addition, in series [4] (24 h), the “concentration with approximately equal effect on acetylated histones H3/H4 and p21WAF/CIP1” value worked out at 2500 µM; the “levels … and p21WAF/CIP1” value is given as “elevated levels”.

As a reminder, the GI50 is the concentration at which growth is held to half of that of the control.
